Results as given in patent US6534530B1, “Antipicornaviral compounds and compositions, their pharmaceutical uses, and materials for their synthesis” (Agouron Pharmaceuticals, Inc., priority 1999, dated 2003).
Read-outs that look alike come from different tables or passages of the source.

Experiments:
[1] = biological target: T1, recombinant rhinovirus 3C protease, serotype 14 (Human rhinovirus 14, UniProt P03303); assay: Inhibition of rhinovirus 3C protease (FRET assay), serotype 14; format: biochemical
T1 construct: Recombinant rhinovirus 3C proteases; made in house
Description: (§1) Stock solutions (50 mM, in DMSO) of various compounds were prepared; dilutions were in the same solvent. Recombinant rhinovirus 3C proteases (see Birch et al., “Purification of recombinant human rhinovirus 14 3C protease expressed in Escherichia coli,” Protein Expr. Pur. (1995), vol. 6(5), 609-618) from serotypes 14, 16, and 2 were prepared by the following standard chromatographic procedures: (1) ion exchange using Q Sepharose Fast Flow from Pharmacia; (2) affinity chromatography using Affi-Gel Blue from Biorad; and (3) sizing using Sephadex G-100 from Pharmacia. Each assay sample contained 2% DMSO, 50 mM tris pH 7.6, 1 mM EDTA, a test compound at the indicated concentration, approximately 1 μM substrate, and 50-100 nM protease. The kobs/I values were obtained from reactions initiated by addition of enzyme rather than substrate. RVP activity was measured in the fluorescence resonance energy transfer assay. The substrate was (N-terminal) DABCYL-([…]-EDANS. In the uncleaved peptide, the EDANS fluorescence was quenched by the proximal DABCYL moiety. When the peptide was cleaved, the quenching was relieved, and activity was measured as an increase in fluorescence signal. The tabulated data in the column designated kobs/[I] were measured from progress curves in enzyme start experiments.

[2] = in vitro; conditions: human
[3] = test system: HRV-14; assay: Antirhinoviral H1-HeLa cell culture assay (XTT), HRV-14; format: cell-based, human rhinovirus
[4] = biological target: T2, recombinant rhinovirus 3C protease, serotype 16 (Human rhinovirus 16, UniProt Q82122); assay: Inhibition of rhinovirus 3C protease (FRET assay), serotype 16; format: biochemical; conditions: HRV-16 3C protease
T2 construct: Recombinant rhinovirus 3C proteases; made in house
Description: as §1

[5] = biological target: T3, recombinant rhinovirus 3C protease, serotype 2 (Human rhinovirus 2, UniProt P04936); assay: Inhibition of rhinovirus 3C protease (FRET assay), serotype 2; format: biochemical; conditions: HRV-2 3C protease
T3 construct: Recombinant rhinovirus 3C proteases; made in house
Description: as §1

[6] = biological target: T4, rhinovirus 3C protease, HRV-89 (Human rhinovirus A serotype 89, UniProt P07210); assay: Inhibition of rhinovirus 3C protease (FRET assay), serotype 89; format: biochemical, human rhinovirus 89; conditions: HRV-89 3C protease
T4 construct: Recombinant rhinovirus 3C proteases

[7] = test system: H1-HeLa cells; assay: Cytotoxicity in mock-infected H1-HeLa cells (antirhinoviral assay, XTT); conditions: HRV-14
[8] = Rhinovirus B, HRV14, HRV-14, H1-HeLa cells

T2 sequence (Q82122 1511-1693): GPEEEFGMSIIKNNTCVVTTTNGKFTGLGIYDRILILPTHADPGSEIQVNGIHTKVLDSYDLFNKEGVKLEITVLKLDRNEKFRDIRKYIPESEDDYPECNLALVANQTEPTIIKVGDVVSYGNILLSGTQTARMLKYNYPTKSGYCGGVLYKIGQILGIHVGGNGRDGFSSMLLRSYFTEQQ
T3 sequence (P04936 1508-1690): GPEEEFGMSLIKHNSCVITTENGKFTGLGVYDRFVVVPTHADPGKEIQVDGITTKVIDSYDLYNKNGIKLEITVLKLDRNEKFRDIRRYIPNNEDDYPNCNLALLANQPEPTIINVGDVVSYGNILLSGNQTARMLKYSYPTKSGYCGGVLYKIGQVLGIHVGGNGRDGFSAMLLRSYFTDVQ
T1 sequence (P03303 1538-1719): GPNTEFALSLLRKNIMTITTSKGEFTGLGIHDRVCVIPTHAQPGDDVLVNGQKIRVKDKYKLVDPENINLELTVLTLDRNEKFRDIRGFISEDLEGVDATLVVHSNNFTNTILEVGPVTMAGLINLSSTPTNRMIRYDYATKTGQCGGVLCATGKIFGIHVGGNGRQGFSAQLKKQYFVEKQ
T4 sequence (P07210 1522-1704): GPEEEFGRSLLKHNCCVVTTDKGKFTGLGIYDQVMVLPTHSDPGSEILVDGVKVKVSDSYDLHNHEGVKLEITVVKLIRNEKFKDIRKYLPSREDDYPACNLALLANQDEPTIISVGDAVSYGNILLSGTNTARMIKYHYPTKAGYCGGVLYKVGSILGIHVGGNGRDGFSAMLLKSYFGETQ

| Molecule | Ki [1] | CC50 at 2 days ([2]; mock-infected H1-HeLa cells) | EC50 [3, 8] | further results |
| --- | --- | --- | --- | --- |
| CSCC(=O)[C@H](CCC(=O)NC(c1ccccc1)(c1ccccc1)c1ccccc1)NC(=O)[C@H](Cc1ccccc1)NC(=O)[C@H](CC(C)C)NC(=O)OCc1ccccc1 [Compound 1, Cbz-L-Leu-L-Phe-L-(Tr-Gln)-CH2SCH3] | 9 µM |  |  |  |
| CSCC(=O)[C@H](CCC(N)=O)NC(=O)[C@H](Cc1ccccc1)NC(=O)[C@H](CC(C)C)NC(=O)OCc1ccccc1 [Compound 2, Cbz-L-Leu-L-Phe-L-(Gln)-CH2SCH3] | 50 µM |  |  |  |
| CC(=O)NC[C@H](NC(=O)[C@H](Cc1ccccc1)NC(=O)[C@H](CC(C)C)NC(=O)OCc1ccccc1)C(=O)COC(=O)c1c(C)cc(C)cc1C [Compound 3, Cbz-L-Leu-L-Phe-L-(N-Ac-amino-Ala)-CH2OC(O)-(2,4,6-trimethylphenyl)] |  | 25 µM | > 25 µM | kobs/[I] ([1]; HRV-14 3C protease, progress curves in enzyme start experiments): slow |
| CC(=O)NC[C@H](NC(=O)[C@H](Cc1ccccc1)NC(=O)[C@H](CC(C)C)NC(=O)OCc1ccccc1)C(C)=O [Compound 5, Cbz-L-Leu-L-Phe-L-(N-Ac-amino-Ala)-CH3] | 138 µM |  |  |  |
| CC(C)C[C@H](NC(=O)OCc1ccccc1)C(=O)N[C@@H](Cc1ccccc1)C(=O)N[C@@H](CNC(=O)OC(C)(C)C)C(=O)c1nc2ccccc2s1 [Compound 6, Cbz-L-Leu-L-Phe-L-(N-Boc-amino-Ala)-2-Benzthiazole] | 4.8 µM |  |  |  |
| CC(C)C[C@H](NC(=O)OCc1ccccc1)C(=O)N[C@@H](Cc1ccccc1)C(=O)N[C@@H](CNC(=O)OC(C)(C)C)C(=O)c1ccccn1 [Compound 7, Cbz-L-Leu-L-Phe-L-(N-Boc-amino-Ala)-2-Pyridine] | 71 µM |  |  |  |
| CC(=O)NC[C@H](NC(=O)[C@H](Cc1ccccc1)NC(=O)[C@H](CC(C)C)NC(=O)OCc1ccccc1)C(=O)c1ccccn1 [Compound 8, Cbz-L-Leu-L-Phe-L-(N-Ac-amino-Ala)-2-Pyridine] | 80 µM |  |  |  |
| CNC(=O)C(=O)[C@H](CNC(C)=O)NC(=O)[C@H](Cc1ccccc1)NC(=O)[C@H](CC(C)C)NC(=O)OCc1ccccc1 [Compound 10, Cbz-L-Leu-L-Phe-L-(N-Ac-amino-Ala)-C(O)NHCH3] | 20 µM | > 320 µM | 251 µM |  |
| CC(=O)NC[C@H](NC(=O)[C@H](Cc1ccccc1)NC(=O)[C@H](CC(C)C)NC(=O)OCc1ccccc1)C(=O)C(=O)N1CCCCC1 [Compound 11, Cbz-L-Leu-L-Phe-L-(N-Ac-amino-Ala)-C(O)-Piperidine] | > 110 µM |  |  |  |
| CC(=O)NC[C@@H](NC(=O)[C@H](Cc1ccccc1)NC(=O)[C@H](CC(C)C)NC(=O)OCc1ccccc1)C(=O)C(=O)N1CCCCC1 [Compound 12, Cbz-L-Leu-L-Phe-D-(N-Ac-amino-Ala)-C(O)-Piperidine] | 10.7 µM |  | 39 µM |  |
| CC(=O)NC[C@H](NC(=O)[C@H](Cc1ccccc1)NC(=O)[C@H](CC(C)C)NC(=O)OCc1ccccc1)C(=O)c1nccs1 [Compound 13, Cbz-L-Leu-L-Phe-L-(N-Ac-amino-Ala)-2-Thiazole] | 24 µM | 56 µM | > 56 µM | Ki [4]: 4 µM; Ki [5]: 13.3 µM |
| C=CC(=O)[C@H](CNC(C)=O)NC(=O)[C@H](Cc1ccccc1)NC(=O)[C@H](CC(C)C)NC(=O)OCc1ccccc1 [Compound 15, Cbz-L-Leu-L-Phe-L-(N-Ac-amino-Ala)-CH=CH2] | 0.098 µM | > 100 µM | > 100 µM |  |
| C#CC(=O)[C@H](CNC(C)=O)NC(=O)[C@H](Cc1ccccc1)NC(=O)[C@H](CNC(C)=O)NC(=O)OCc1ccccc1 [Compound 16] | 0.035 µM | > 100 µM | > 100 µM |  |
| COCC#CC(=O)[C@H](CNC(C)=O)NC(=O)[C@H](Cc1ccccc1)NC(=O)[C@H](CC(C)C)NC(=O)OCc1ccccc1 [Compound 17, Cbz-L-Leu-L-Phe-L-(N-Ac-amino-AIa)-C≡CCH2OCH3] | 0.075 µM | > 100 µM | > 100 µM |  |
| CC(=O)NC[C@H](NC(=O)[C@H](Cc1ccccc1)NC(=O)[C@H](CC(C)C)NC(=O)OCc1ccccc1)C(=O)COCCc1ccccc1 [Compound 18, Cbz-L-Leu-L-Phe-L-(N-Ac-amino-Ala)-CH2OCH2CH2Ph] | 9.1 µM | 20 µM | > 20 µM | Ki [6]: 14 µM; Ki [4]: 6.7 µM; Ki [5]: 11 µM |
| COCC(=O)[C@H](CNC(C)=O)NC(=O)[C@H](Cc1ccccc1)NC(=O)[C@H](CC(C)C)NC(=O)OCc1ccccc1 [Compound 19, Cbz-L-Leu-L-Phe-L-(N-Ac-amino-Ala)-CH2OCH3] | 27 µM |  |  | Ki [6]: 20.6 µM; Ki [4]: 27 µM; Ki [5]: 12.9 µM |
| CC(C)C[C@H](NC(=O)OCc1ccccc1)C(=O)N[C@@H](Cc1ccccc1)C(=O)N[C@@H](CCC(N)=O)C(=O)c1nc2ccccc2s1 [Compound 20, Cbz-L-Leu-L-Phe-L-Gln-2-Benzthiazole] | 3.5 µM | > 100 µM | 17.4 µM |  |
| CC(C)C[C@H](NC(=O)OCc1ccccc1)C(=O)N[C@@H](Cc1ccccc1)C(=O)N[C@@H](C[C@@H]1CCNC1=O)C(=O)c1nc2ccccc2s1 [Compound 21, Cbz-L-Leu-L-Phe-L-[(S)-Pyrrol-Ala]-2-Benzthiazole] | 0.065 µM | > 320 µM | 3.2 µM | melting point: 108 to 111 °C |
| CC(C)C[C@H](NC(=O)OCc1ccccc1)C(=O)N[C@@H](Cc1ccccc1)C(=O)N[C@@H](C[C@@H]1CCNC1=O)C(=O)c1ccccn1 [Compound 23, Cbz-L-Leu-L-Phe-L-[(S)-Pyrrol-Ala]-2-Pyridine] | 0.17 µM | 200 µM | 4 µM |  |
| CC(=O)[C@H](C[C@@H]1CCNC1=O)NC(=O)[C@H](Cc1ccccc1)NC(=O)[C@H](CC(C)C)NC(=O)OCc1ccccc1 [Compound 24, Cbz-L-Leu-L-Phe-L-[(S)-Pyrrol-Ala]-CH3] | 0.65 µM | > 10 µM | > 10 µM |  |
| CC(C)C[C@H](NC(=O)OCc1ccccc1)C(=O)N[C@@H](Cc1ccccc1)C(=O)N[C@@H](C[C@@H]1CCNC1=O)C(=O)c1cc2ccccc2s1 [Compound 25, Cbz-L-Leu-L-Phe-L-[(S)-Pyrrol-Ala]-2-Benzothiophene] | 4.7 µM | > 10 µM | > 10 µM |  |
| CC(C)C[C@H](NC(=O)OCc1ccccc1)C(=O)N[C@@H](Cc1ccccc1)C(=O)N[C@@H](C[C@@H]1CCNC1=O)C(=O)c1ccccc1 [Compound 26, Cbz-L-Leu-L-Phe-L-[(S)-Pyrrol-Ala]-Ph] | 3.22 µM | > 10 µM | > 10 µM |  |
| CC(C)C[C@H](NC(=O)OCc1ccccc1)C(=O)N[C@@H](Cc1ccccc1)C(=O)N[C@@H](CCC(N)=O)C(=O)COC(=O)c1c(Cl)cccc1Cl [Compound 27, Cbz-L-Leu-L-Phe-L-Gln-CH2OC(O)-(2,6-dichlorophenyl)] |  |  |  | kinact/KI ([1]; pH 7.6, HRV-14 3C protease, progress curves in enzyme start experiments, read-out: kobs/[I]): 2500 M⁻¹ s⁻¹ |
| CCOC(=O)c1ccc(OCCC2CCN(c3ccc(C)nn3)CC2)cc1 [Pirodavir, reference compound] |  |  | 0.03 µM | CC50 at 2 days [2]: > 10 µM |
| Cc1cc(CCCOc2c(C)cc(-c3noc(C(F)(F)F)n3)cc2C)on1 [Pleconaril, reference compound] |  | > 10 µM | 0.01 µM |  |
| Cc1cc(CCCCCCCOc2ccc(C3=NCCO3)cc2)on1 [WIN51711, reference compound] |  |  |  | CC50 [7]: > 60 µM; EC50 ([3]; HRV-14, H1-HeLa cells): 0.78 µM |
| Cc1cc(CCCCCCCOc2ccc(C3=N[C@@H](C)CO3)cc2)on1 [WIN52084, reference compound] |  |  |  | CC50 [7]: > 10 µM; EC50 ([3]; HRV-14, H1-HeLa cells): 0.07 µM |
| Cc1cc(CCCCCOc2c(Cl)cc(C3=NCCO3)cc2Cl)on1 [WIN54954, reference compound] |  |  |  | CC50 [7]: > 63 µM; EC50 ([3]; HRV-14, H1-HeLa cells): 2.13 µM |
| Cbz-L-Leu-L-Phe-L-(N-Boc-amino-Ala)-CH3 [Compound 4] |  |  |  | Ki ([1]; HRV-14 3C protease, read-out: Ki): 16.3 µM |
